Experimental data reported in patent publication US10662214B2, “Compound of 4′-thionucleoside, as well as preparation method therefor, pharmaceutical composition thereof and application thereof” (Sichuan Kelun-Biotech Biopharmaceutical Co., Ltd., priority 2015, dated 2020).

Assays:
[1] = Intravenous toxicity test in mice (administration for 7 days); format: in vivo; conditions: mouse, in vivo, iv
Source text: This test was used to investigate the toxic reactions after intravenous administration of compound C8 to normal KM mice for 7 consecutive days.
KM mice passing the quarantine control were randomized into 4 groups (3 mice/gender/group). The test compound and vehicle control were formulated according to Experimental example 2. The mortality, appearance, behavior, mental status, secretion and excreta etc. of the animals were observed every day for 7 consecutive days after the administration, and the animals were anatomized on day 8.

[2] = Oral toxicity test in mice (administration for 7 days); format: in vivo; conditions: once per day for 7 days
Protocol: Normal Male and female Kunming mice (SPF grade, obtained from Laboratory Animal Center in Sichuan Academy of Chinese Medicine Science) were randomized by weight into groups. The test compound and vehicle control were formulated according to Experimental example 2. The dosage volume was 10 mL/kg, and the administration was performed by oral gavage, once per day for 7 consecutive days.

[3] = test system: colorectal cancer cell HCT-15; test: CCK-8 inhibition of proliferation, HCT-15; format: cell-based, human; conditions: for inhibitory effect on colorectal cancer cell HCT-15 (in words): FIG. 1: 5-10000 nM; for IC50: Homo sapiens, HCT-15, CCK-8, 72 h incubation
Protocol: (§1) The tumor cell lines employed in the present experiment were gastric cancer cell NCI-N87 (obtained from Guangzhou Jennio Biological Technology Co., Ltd.), colorectal cancer cell HCT-116 (obtained from Chengdu Center for Safety Evaluation of Drugs), colorectal cancer cell HCT-15 and pancreatic cancer cell BxPC-3 (both obtained from ATCC, US).
(§2) Each of the cell lines is cultured in a corresponding culture medium (RPMI-1640, IMDM and L-15 culture medium (manufacturer: Gibco)) supplemented with 10% heat inactivated Fetal Bovine Serum (manufacturer: Sigma), in an incubator at 37° C. and 5% CO2.
(§3) For each type of tumor cells, a blank group, a vehicle group (containing 1‰ DMSO) and 8 groups with a test compound at concentrations of 5 nM, 10 nM, 50 nM, 100 nM, 500 nM, 1000 nM, 5000 nM, and 10000 nM (with each concentration in triplicate) were set.
(§4) Appropriate amounts of test compounds were weighted, and dissolved in DMSO (cell culture grade, Sigma) to prepare stock solutions of various concentration gradients according to desired concentrations. During incubation, they were diluted by 1000 times as necessary, and incubation solutions with various drug concentrations were prepared (compound stock solution:medium containing 2% FBS=1:1000).
(§5) The experiment was performed according to a CCK-8 method as described below. Cancer cells to be tested were seeded in a 96-well culture plate at a concentration of 5˜10×10^4/mL (100 μL/well), followed by incubation at 37° C. and 5% CO2 for 24 h. The medium was discarded, and incubation solutions with different drug concentrations (200 μL) were respectively added to each well, and the cells were further incubated for 72 h. After the incubation, a CCK-8 solution (20 μL/well) was added to each well to be tested, and the incubation was continued for 4 h in the incubator. OD values at two wavelengths (Detection wavelength: 450 nm, and reference wavelength: 650 nm) were determined on a multifunctional fully-automatic microplate reader.
(§6) The inhibitory rate of tumor cell growth was calculated according to the following formula: Inhibitory rate=[(ODvehicle−ODblank)−(ODdrug−ODblank)]/(ODvehicle−ODblank)*100%
(§7) Based on the inhibitory rate, a concentration-inhibitory rate curve was fit using GraphPad prism 5.0 software, and IC50 was calculated.

[4] = test system: pancreatic cancer cell BxPC-3; test: CCK-8 inhibition of proliferation, BxPC-3; format: cell-based, human; conditions: for inhibitory effect on pancreatic cancer cell BxPC-3 (in words): FIG. 1: 5-10000 nM; for IC50: Homo sapiens, BXPC-3, CCK-8, 72 h incubation
Protocol: as §1, §2, §3, §4, §5, §6, §7

[5] = test system: gastric cancer cell NCI-N87; test: CCK-8 inhibition of proliferation, NCI-N87; format: cell-based, human; conditions: for inhibitory effect on gastric cancer cell NCI-N87 (in words): FIG. 1: 5-10000 nM; for IC50: Homo sapiens, NCI-N87, CCK-8, 72 h incubation
Protocol: as §1, §2, §3, §4, §5, §6, §7

SMILES	body weight decrease on day 8, female mice [1] [%]	body weight decrease on day 8, male mice [1] [%]	symptoms observed on day 8 ([1]; 20 mg/kg)	dosage at which death of animals occurred ([2]; oral gavage)	Results: mortality (3 Male + 3 Female) ([2]; ~77 μmol/kg oral gavage)	inhibitory effect on colorectal cancer cell HCT-15 (in words) [3]	IC50 [3] [µM]	inhibitory effect on pancreatic cancer cell BxPC-3 (in words) [4]	IC50 [4] [µM]	inhibitory effect on gastric cancer cell NCI-N87 (in words) [5]	IC50 [5] [µM]
Nc1ccn([C@@H]2S[C@H](CO)[C@@H](O)[C@@H]2F)c(=O)n1 [Compound A, 1-((2R,3S,4S,5R)-3-fluoro-4-hydroxy-5-(hydroxymethyl)tetrahydrothiophen-2-yl)cytosine, reference compound]	20.2	18.1	a hunched stance and weight loss	about 77 μmol/kg	symptoms, and two	–	–	–	–	–	–
CC(C)OC(=O)[C@H](C)N[P@](=O)(OC[C@H]1S[C@@H](n2ccc(N)nc2=O)[C@@H](F)[C@@H]1O)Oc1ccc2c(c1)OCO2 [Compound C14, (S)-isopropyl 2-(((S)-(((2R,3S,4S,5R)-5-(4-amino-2-oxopyrimidin-1(2H)-yl)-4-fluoro-3-hydroxytetrahydrothiophen-2-yl)methoxy)(benzo[d][1,3]dioxol-5-yloxy)phosphoryl)amino)propanoate]	–	–	–	–	–	excellent inhibitory effects	9.78	excellent inhibitory effects	2.82	excellent inhibitory effects	0.18
CC(C)OC(=O)[C@H](C)NP(=O)(OC[C@H]1S[C@@H](n2ccc(N)nc2=O)[C@@H](F)[C@@H]1O)Oc1ccc2ccoc2c1 (stereo partly drawn) [Compound C19, (S)-isopropyl 2-(((((2R,3S,4S,5R)-5-(4-amino-2-oxopyrimidin-1(2H)-yl)-4-fluoro-3-hydroxytetrahydrothiophen-2-yl)methoxy)(benzofuran-6-yloxy)phosphoryl)amino)propanoate]	–	–	–	–	–	–	–	excellent inhibitory effects	0.68	excellent inhibitory effects	0.35
CC(C)OC(=O)[C@H](C)N[P@@](=O)(OC[C@H]1S[C@@H](n2ccc(N)nc2=O)[C@@H](F)[C@@H]1O)Oc1ccc2c(c1)OCO2 [Compound C13, (S)-isopropyl 2-(((R)-(((2R,3S,4S,5R)-5-(4-amino-2-oxopyrimidin-1 (2H)-yl)-4-fluoro-3-hydroxytetrahydrothiophen-2-yl)methoxy)(benzo[d][1,3]dioxol-5-yloxy)phosphoryl)amino)propanoate]	–	–	–	–	–	–	–	–	–	excellent inhibitory effect	0.55
C[C@H](NP(=O)(OC[C@H]1S[C@@H](n2ccc(N)nc2=O)[C@@H](F)[C@@H]1O)Oc1ccccc1)C(=O)OCc1ccc(F)cc1 (stereo partly drawn) [Compound C15, (2S)-4-fluorobenzyl 2-(((((2R,3S,4S,5R)-5-(4-amino-2-oxopyrimidin-1(2H)-yl)-4-fluoro-3-hydroxytetrahydrothiophen-2-yl)methoxy)(phenoxy)phosphoryl)amino)propanoate]	–	–	–	–	–	excellent inhibitory effects	4.08	excellent inhibitory effects	1.8	excellent inhibitory effects	0.24
CC(C)OC(=O)[C@H](C)NP(=O)(OC[C@H]1S[C@@H](n2ccc(N)nc2=O)[C@@H](F)[C@@H]1O)Oc1cccc2c1OCCO2 (stereo partly drawn) [Compound C16, (S)-isopropyl 2-(((((2R,3S,4S,5R)-5-(4-amino-2-oxopyrimidin-1(2H)-yl)-4-fluoro-3-hydroxytetrahydrothiophen-2-yl)methoxy)((2,3-dihydrobenzo[b][1,4]dioxin-5-yl)oxy)phosphoryl)amino)propanoate]	–	–	–	–	–	–	–	excellent inhibitory effects	1.15	excellent inhibitory effects	0.3
CC(C)OC(=O)[C@H](C)NP(=O)(OC[C@H]1S[C@@H](n2ccc(N)nc2=O)[C@@H](F)[C@@H]1O)Oc1ccc(F)c2c1CCO2 (stereo partly drawn) [Compound C17, (S)-isopropyl 2-(((((2R,3S,4S,5R)-5-(4-amino-2-oxopyrimidin-1(2H)-yl)-4-fluoro-3-hydroxytetrahydrothiophen-2-yl)methoxy)((7-fluoro-2,3-dihydrobenzofuran-4-yl)oxy)phosphoryl)amino)propanoate]	–	–	–	–	–	–	–	excellent inhibitory effects	3.8	excellent inhibitory effects	0.63
C[C@H](NP(=O)(OC[C@H]1S[C@@H](n2ccc(N)nc2=O)[C@@H](F)[C@@H]1O)Oc1ccccc1)C(=O)OCc1ccccc1 (stereo partly drawn) [Compound C2, (S)-benzyl 2-(((((2R,3S,4S,5R)-5-(4-amino-2-oxopyrimidin-1(2H)-yl)-4-fluoro-3-hydroxytetrahydrothiophen-2-yl)methoxy)(phenoxy)phosphoryl)amino)propanoate]	–	–	–	–	–	excellent inhibitory effects	2.97	excellent inhibitory effects	1.28	excellent inhibitory effects	0.25
CC(C)OC(=O)[C@H](C)NP(=O)(OC[C@H]1S[C@@H](n2ccc(N)nc2=O)[C@@H](F)[C@@H]1O)Oc1ccc2c(c1)OCC2 (stereo partly drawn) [Compound C18, (S)-isopropyl 2-(((((2R,3S,4S,5R)-5-(4-amino-2-oxopyrimidin-1(2H)-yl)-4-fluoro-3-hydroxytetrahydrothiophen-2-yl)methoxy)((2,3-dihydrobenzofuran-6-yl)oxy)phosphoryl)amino)propanoate]	–	–	–	–	–	–	–	excellent inhibitory effect	2.74	–	–
